Experimental data published in patent US7410955B2, “Therapeutic use of agonist ligands specific to G2A receptor” (Biosynergen, Inc., priority 2002, dated 2008).

Assays:
E. coli (DH5a) = test: Bacteria-induced sepsis model; type: in vivo, ICR mice; conditions: 10 mg/kg subcutaneous, 2 and 14 hours after i.p. E. coli
Protocol: ICR mice (25-30 g in body weight; MJ Ltd.) were intraperitoneally injected with alive 10^8 cells/ml E. coli (DH5a) that were suspended in 0.5 ml of PBS (phosphate-buffered saline) to cause peritonitis, thereby inducing sepsis.
After the peritoneal cavity of mice had been exposed, it was washed with sterilized saline (2 ml). The resultant solution was diluted with HBSS (Sigma Chemical Co., USA) in a ratio of 1/1000, and then 10 μl of each diluted solution was spread on Trypticase Soy agar (BBL, Becton Dickinson Co., USA) plates. After overnight incubation at 37° C., colony forming unit (CFU) was measured.
14 ICR mice of bacteria-induced septicemia model according to Reference Example <1-1> a) were divided into two groups of 7 mice. 7 mice were administered with 1-stearoyl LPC (Sigma Chemical Co., USA) dissolved in 1% BSA (bovine serum albumin) solution containing no fatty acid in an amount of 10 mg/kg by subcutaneous injection, 2 and 14 hours after E. coli was intraperitoneally injected, respectively (experimental group). The remaining 7 mice were administered with 1% BSA solution containing no fatty acid of the same amount as above, instead of LPC, in the same manner (control group). […] Also, the number of intraperitoneal E. coli cells 24 hours after the intraperitoneal injection was measured in accordance with the method described in Reference Example 3.

E. coli = test: In vitro antibacterial activity of LPC (CFU on LB media); type: cell-based; conditions: for CFU: 37° C., 12 hours
Protocol: Four petridishes per group were used. For a control group, only LB media was poured onto four 60-mm petridishes and hardened. The peritoneal cavity of mice according to Example <6-1> was washed with sterilized saline. The resultant solution was diluted with HBSS in a ratio of 1/100, and then 10 μl of the diluted solution was spread on the media for each group. Subsequently, after they had been incubated in a bacteria incubator maintained at 37° C. for 12 hours, colony forming unit (CFU) was visibly measured.

[1] = test system: myeloperoxidase (MPO) in pulmonary tissues; test: LPS-induced (intratracheal) acute lung injury model, lung MPO activity; type: in vivo, ICR mice
Protocol: (§1) The activity of myeloperoxidase (MPO), an indicator of neutrophils, in pulmonary tissues was determined according to the methods of Goldblum et al (J. Appl. physiol. 59: 1978, 1985) and Parey et al (J. Immunol. 160:1007, 1998). First, mice were sacrificed and pulmonary tissues were obtained therefrom. The tissues had been homogenized in potassium phosphate buffer, and centrifuged to obtain pellets. These pellets were sonicated in potassium phosphate buffer containing 0.5% hexadecyltrimethylammonium bromide (HTAB), and incubated at 60° C. for 120 min. After centrifugation, supernatants were obtained. 0.02 ml of supernatants was mixed with potassium phosphate buffer solution (0.18 ml) containing o-dianisidine dihydrochloride of 0.167 mg/ml and 0.0005% hydrogen peroxide. Accordingly, the absorbance of the mixture was determined at a wavelength of 460 nm.
Mice were intratracheally administered with LPS to cause direct acute lung injury, thereby inducing acute respiratory distress syndrome.
ICR mice (25-30 g in body weight; MJ Ltd.) were divided into five groups of 7 mice (Sham group, experimental groups-1, -2, -3 and a control group). Mice of each group were anesthetized with pentobarbital, their skins were dissected in a length of 1 cm to expose their bronchia. […]

[2] = test system: myeloperoxidase (MPO) in pulmonary tissues; test: Systemic LPS-induced acute lung injury model, lung MPO activity; type: in vivo, ICR mice
Protocol: ICR mice (25-30 g in body weight; MJ Ltd.) were intraperitoneally injected with LPS (induced from E. coli 055:B5) in an amount of 1 mg/kg thereby inducing Sepsis.
as §1, with “0.02 ml of supernatants was mixed with potassium phosphate buffer solution (0.18 ml) containing o-dianisidine dihydrochloride of 0.167 mg/ml and 0.0005% hydrogen peroxide.” left out, “nm. […]” for “nm.”
ICR mice in LPS-induced septicemia model according to Reference Example <1-1> b) were divided into five groups of 7 mice (Sham group, an experimental group-1, an experimental group-2, an experimental group-3 and a control group). […] At 24 hours after LPS had been administered, the activity of MPO, an indicator of neutrophils, in the pulmonary tissues of the mice of each group, was determined as described in Reference Example 2.

[3] = 20 mg/kg subcutaneous (experimental group-3), p<0.01

For CCCCCCCCCCCCCCCCCC(=O)OCC(O)COP(=O)([O-])OCC[N+](C)(C)C (stereo not shown) [1-stearoyl LPC, 1-stearoyl (18:0) lysophosphatidylcholine], the “number of intraperitoneal E. coli cells” value (E. coli (DH5a); 24 hours after injection, P<0.01) was “remarkably decreased”, the “death rate due to septicemia (survival rate over time)” value (E. coli (DH5a); P<0.05) was “significantly suppressed” and the CFU (E. coli; LPC conc. 12 μM in LB media) was 661 ± 285. The CFU (E. coli; LPC conc. 60 μM in LB media) was 639 ± 304, the CFU (E. coli; LPC conc. 300 μM in LB media) was 611 ± 281 and the “in vitro direct antibacterial effects against E. coli” value (E. coli; summary of Table 1) was “no in vitro direct antibacterial effects”. The “activity of MPO in pulmonary tissues” value [1, 3] was “the most excellent effects”, the “activity of MPO in pulmonary tissues” value ([1]; 5, 10 and 20 mg/kg subcutaneous, 2 and 14 hours after intratracheal LPS, 24 hours after LPS, vs control group) was “suppressed in a concentration-dependent manner” and the “activity of MPO in pulmonary tissues” value [2, 3] was “the most excellent effects”. The “activity of MPO in pulmonary tissues” value ([2]; 5, 10 and 20 mg/kg subcutaneous, 2 and 14 hours after intraperitoneal LPS 1 mg/kg, 24 hours after LPS, vs control group) was “suppressed in a concentration-dependent manner”.
